Reference: US12637468B2, “Substituted [1,2,4]triazolo[4,3-b]pyridazines as GABAA receptor modulators” (SHANGHAI SIMR BIOTECHNOLOGY CO., LTD., priority 2019, dated 2026)

The compounds below were run against T1, α5-GABAA receptor (Homo sapiens, UniProt P18507+P31644) (assay: Cell-level screening: whole cell patch clamp, inverse agonist efficacy on α5-GABAA receptor expressed in HEK293). Settings: drug 100 nM, GABA 0.05 μM, HEK293 expressing α5, β3 and γ2 subunits, clamped at −60 mV; read-out: Compound inverse agonist efficacy %.
T1 construct: expressed in transfected cells; host or cells: HEK293, monoclonal stably transfected line
T1 sequence (P31644 32-462): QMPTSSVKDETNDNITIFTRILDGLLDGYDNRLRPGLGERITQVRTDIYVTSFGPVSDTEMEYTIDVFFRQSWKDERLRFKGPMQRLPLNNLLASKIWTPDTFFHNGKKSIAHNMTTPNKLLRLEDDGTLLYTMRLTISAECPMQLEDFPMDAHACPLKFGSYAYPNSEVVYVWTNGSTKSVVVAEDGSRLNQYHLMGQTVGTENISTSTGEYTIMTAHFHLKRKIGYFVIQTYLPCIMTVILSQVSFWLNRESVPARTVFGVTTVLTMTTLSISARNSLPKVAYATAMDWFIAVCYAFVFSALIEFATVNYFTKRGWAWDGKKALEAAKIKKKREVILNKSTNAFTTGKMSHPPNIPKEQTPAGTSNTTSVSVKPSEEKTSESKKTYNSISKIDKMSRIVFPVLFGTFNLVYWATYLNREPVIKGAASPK
T1 sequence (P28472 26-473 partner): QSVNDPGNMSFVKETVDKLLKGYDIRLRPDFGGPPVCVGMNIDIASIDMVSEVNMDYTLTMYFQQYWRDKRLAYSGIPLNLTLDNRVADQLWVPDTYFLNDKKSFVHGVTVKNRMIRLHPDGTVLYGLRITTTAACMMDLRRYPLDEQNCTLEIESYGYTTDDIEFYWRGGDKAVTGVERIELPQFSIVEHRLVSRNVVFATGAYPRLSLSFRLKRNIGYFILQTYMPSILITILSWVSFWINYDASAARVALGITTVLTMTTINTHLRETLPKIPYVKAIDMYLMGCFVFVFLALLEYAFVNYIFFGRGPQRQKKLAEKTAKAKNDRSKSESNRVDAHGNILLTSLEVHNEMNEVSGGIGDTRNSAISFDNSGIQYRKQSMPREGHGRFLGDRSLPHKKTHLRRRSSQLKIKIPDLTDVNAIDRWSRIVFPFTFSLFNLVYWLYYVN
T1 sequence (P18507 40-467 isoform P18507-1 limits assumed): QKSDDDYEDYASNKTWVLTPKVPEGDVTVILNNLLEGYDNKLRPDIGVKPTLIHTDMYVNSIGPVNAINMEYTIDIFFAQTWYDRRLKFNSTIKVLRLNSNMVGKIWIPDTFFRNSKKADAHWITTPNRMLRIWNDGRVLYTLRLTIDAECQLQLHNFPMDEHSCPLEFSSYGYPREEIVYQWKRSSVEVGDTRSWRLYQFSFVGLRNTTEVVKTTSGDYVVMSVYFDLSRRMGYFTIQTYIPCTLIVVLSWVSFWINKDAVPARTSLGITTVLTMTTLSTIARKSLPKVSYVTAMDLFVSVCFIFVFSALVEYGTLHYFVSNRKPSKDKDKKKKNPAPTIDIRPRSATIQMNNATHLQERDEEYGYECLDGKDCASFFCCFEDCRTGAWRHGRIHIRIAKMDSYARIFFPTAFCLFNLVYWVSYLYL
Type: cell-based
Protocol: The inventors used electrophysiological methods to determine the inverse agonist efficacy of the drugs to be tested on the α5-GABAA receptor. The detailed methods are as follows:
Different subunits of GABAA receptors were expressed in human […] cell line 293 (HEK293) cell line. The cells were cultured in a culture medium and used as a cell model for screening pain inhibiting drugs. The α, β and γ subunits are necessary to form complete functional GABAA receptors. In this embodiment, the inventors had established the following cell model: α5 subunit (see GenBank Accession No. NM_000810.3 for protein sequences), β3 subunit (see GenBank Accession No. NM_000814.5 for protein sequences) and γ2 subunit (see GenBank Accession No. NM_000816.3 for protein sequences) were expressed in HEK293 cell line at the same time, followed by screening the monoclonal cell line. This cell line contained α5-GABAA receptor and had complete GABAA receptor function.
The monoclonal stably transfected HEK-293 cells expressing α5-GABAA receptor were cultured in 10 cm culture dishes and passaged when the cells grew to 80%-90%. During passaging, the culture medium was aspirated first, then 3 mL of DPBS phosphate buffer salt (Gibco™) was added to the culture dishes, and the culture dishes were shaken slightly, and DPBS was aspirated. 1 mL of trypsin (TrypLE Express, Gibco™) was added thereto, and the cells were digested at 37° C. for 1-2 minutes. Then 3 mL of complete medium (DMEM+10% FBS (Gibco™)) was added and the cells at the bottom of the culture dishes were dispersed. The cell suspension were transferred to a 15 mL centrifugal tube (Corning) and then centrifuged at 200 g for 3 minutes. The supernatant was discarded, 4 mL of complete medium was added, and the cells were gently blown and resuspended for use. If cell passaging was performed, the cell suspension was diluted at a ratio of 1:5 or 1:10. If cells for electrophysiology use were prepared, the cell suspension was diluted in a ratio of 1:12, then added into a 24-well dish (Corning™) in which glass slides were placed and pretreated with Poly-D-Lysine, and the cells were tested after being attached to the walls. The culture time of cells for electrophysiology use was no more than 48 hours.
Drug concentration setting: the final drug concentration used in drug screening was 100 nM, and the GABA concentration range was 0.05 μM. The final drug concentrations used in the dose-inversal agonistic efficiency (%) test were 0.3 nM, 3 nM, 10 nM, 30 nM, 100 nM and 300 nM. The whole cell patch clamp technique was used in electrophysiological experiments, which could refer to the literature (I. Lecker, Y. Yin, D. S. Wang and B. A. Orser, (2013) Potentiation of GABAA receptor activity by volatile anaesthetics is reduced by α5-GABAA receptor-preferring inverse agonists, British Journal of Anaesthesia 110 (S1): i73-i81). The components of extracellular solution (ECS) for electrophysiology use were as follows: 150 mM NaCl, 5 mM KCl, 2.5 mM CaCl2), 1 mM MgCl2, 10 mM HEPES and 10 mM glucose (pH 7.4); electrode internal solutions for electrophysiology use were as follows: 140 mM CsCl, 11 mM EGTA, 10 mM HEPES, 2 mM CaCl2), 1 mM MgCl2, 4 mM MgATP, 2 mM TEA (pH 7.3). The signal acquisition used an EPC-10 amplifier and the PatchMaster software (HEKA). The recording electrode was drawn using borosilicate glass, and the electrode resistance was 4 to 6 MΩ. The ALA-VC3-8PP™ system was used for extracellular administration. Separate cells that grew independently was selected for recording. During recording, the cell membrane potential was clamped at −60 mV. During experiment, an extracellular solution was applied to the cells for about 20 seconds. When the baseline reached to a stable state, the extracellular solution was switched to GABA. Then the current induced by GABA could be detected. […]

inhibition at 0.1 µM [%]	SMILES
74.4	COc1cc2nnc(-c3cc(C)on3)n2nc1OCc1ccc2nn(Cc3cc(C)on3)cc2n1 [Embodiment 225]
45.9	COc1cc2nnc(-c3cc(C)on3)n2nc1OCc1ccc2nn(C3COC3)cc2n1 [Embodiment 226, 3-(7-Methoxy-6-((2-(oxetan-3-yl)-2H-pyrazolo[4,3-b]pyridin-5-yl)methoxy)-[1,2,4]triazolo[4,3-b]pyridazin-3-yl)-5-methylisoxazole]
61.5	COc1cc2nnc(-c3cc(C)on3)n2nc1OCc1ccc2c(cnn2C2COC2)n1 [Embodiment 227]
44.7	COc1cc2nnc(-c3cc(C)on3)n2nc1OCc1ccc2c(cnn2CCC#N)n1 [Embodiment 228]
30.8	COc1cc2nnc(-c3cc(C)on3)n2nc1OCc1ccc2c(cnn2CCc2ccccc2)n1 [Embodiment 229, 3-(7-Methoxy-6-(((1-phenethyl-1H-pyrazolo[4,3-b]pyridin-5-yl]methoxy])-[1,2,4]triazolo[4,3-b]pyridazin-3-yl)-5-methylisoxazole]
57.2	COc1cc2nnc(-c3cc(C)on3)n2nc1OCc1ccc2nn(CCc3ccccc3)cc2n1 [Embodiment 230, 3-(7-Methoxy-6-(((2-phenethyl-2H-pyrazolo[4,3-b]pyridin-5-yl]methoxy])-[1,2,4]triazolo[4,3-b]pyridazin-3-yl)-5-methylisoxazole]
43.5	COc1cc2nnc(-c3cc(C)on3)n2nc1OCc1ccc2nn(C(C)C)cc2n1 [Embodiment 235]
54.8	COc1cc2nnc(-c3cc(C)on3)n2nc1OCc1ccc2c(cnn2C(C)C)n1 [Embodiment 236]
57.9	COc1cc2nnc(-c3cc(C)on3)n2nc1OCc1ccc2nn(C)cc2n1 [Embodiment 237]
48	COc1cc2nnc(-c3cc(C)on3)n2nc1OCc1ccc2c(cnn2C2CCOCC2)n1 [Embodiment 239]
54.7	COc1cc2nnc(-c3cc(C)on3)n2nc1OCc1ccc2c(n1)c(C)nn2C1COC1 [Embodiment 242]
50.5	CCn1nc(C)c2nc(COc3nn4c(-c5cc(C)on5)nnc4cc3OC)ccc21 [Embodiment 243]
75.1	CCn1nc2ccc(COc3nn4c(-c5cc(C)on5)nnc4cc3OC)nc2c1C [Embodiment 244]
46.6	COc1cc2nnc(-c3cc(C)on3)n2nc1OCc1ccc2ncn(C3CCOC3)c2n1 (stereo not drawn) [Embodiment 246]
31.4	COc1cc2nnc(-c3cc(C)on3)n2nc1OCc1ccc2c(ncn2C2CCOCC2)n1 [Embodiment 248]

The remaining lines, values behind:

SMILES	inhibition at 0.1 µM [%]
COCCCOc1nnc(COc2nn3c(-c4cc(C)on4)nnc3cc2OC)cc1C [Embodiment 155]	50.1
COc1cc2nnc(-c3cc(C)on3)n2nc1OCc1cnc(OC2COC2)cn1 [Embodiment 157]	46.8
COCCNc1ccc(COc2nn3c(-c4cc(C)on4)nnc3cc2OC)nn1 [Embodiment 159]	50.4
COCC(C)Oc1ccc(COc2nn3c(-c4cc(C)on4)nnc3cc2OC)nn1 (stereo not drawn) [Embodiment 161]	53.1
COc1cc2nnc(-c3cc(C)on3)n2nc1OCc1ccc(OCC2CCCO2)nn1 (stereo not drawn) [Embodiment 165]	49.8
COc1cc2nnc(-c3cc(C)on3)n2nc1OCc1ccc(OCC2CCOCC2)nn1 [Embodiment 171]	53.1
COc1cc2nnc(-c3cc(C)on3)n2nc1OCc1cc(OC2COC2)ccn1 [Embodiment 172]	47.6
COc1cc2nnc(-c3cc(C)on3)n2nc1OCc1ccc(OC2COC2)cn1 [Embodiment 175]	36
CCc1cn2nc(COc3nn4c(-c5cc(C)on5)nnc4cc3OC)ccc2n1 [Embodiment 176]	50.1
COc1cc2nnc(-c3cc(C)on3)n2nc1OCc1cnc(OC2CCOCC2)cn1 [Embodiment 177]	56.5
COc1cc2nnc(-c3cc(C)on3)n2nc1OCc1cnc(OCC2CCCO2)cn1 (stereo not drawn) [Embodiment 178]	36.7
COc1cc2nnc(-c3cc(C)on3)n2nc1OCc1ccc2c(n1)CCN(C1CC(F)(F)C1)C2 [Embodiment 184]	33.9
COc1cc2nnc(-c3cc(C)on3)n2nc1OCc1ccc2c(n1)CCN(Cc1nnc(C)o1)C2 [Embodiment 188]	52.4
COCC(C)(C)N1CCc2nc(COc3nn4c(-c5cc(C)on5)nnc4cc3OC)ccc2C1 [Embodiment 190]	38.3
COc1cc2nnc(-c3cc(C)on3)n2nc1OCc1ccc2c(n1)CCN(c1cc(C)on1)C2 [Embodiment 191]	44
COc1cc2nnc(-c3cc(C)on3)n2nc1OCc1ccc2c(n1)CCN(c1nnc(C)o1)C2 [Embodiment 192]	40.8
COc1cc2nnc(-c3cc(C)on3)n2nc1OCc1ccc2c(n1)CCN(CC13CC(C#N)(C1)C3)C2 [Embodiment 194]	41.5
COc1cc2nnc(-c3cc(C)on3)n2nc1OCc1ccc2c(n1)CCN(C1CC(C#N)C1)C2 (stereo not drawn) [Embodiment 195]	45.8
COc1cc2nnc(-c3cc(C)on3)n2nc1OCc1ccc2c(n1)CCN(CC(F)(F)CO)C2 [Embodiment 196]	50.8
COc1cc2nnc(-c3cc(C)on3)n2nc1OCc1ccc2c(n1)CCN(C1CN(C(C)=O)C1)C2 [Embodiment 199, 1-(3-(2-(((7-Methoxy-3-(5-methylisoxazol-3-yl)-[1,2,4]triazolo[4,3-b]pyridazin-6-yl)oxy)methyl)-7,8-dihydro-1,6-naphthyridin-6(5H)-yl)azetidin-1-yl)ethan-1-one]	56.8
COc1cc2nnc(-c3cc(C)on3)n2nc1OCc1ccc2c(n1)CCN(C(=O)NC1CC(F)(F)C1)C2 [Embodiment 201, N-(3,3-Difluorocyclobutyl)-2-(((7-methoxy-3-(5-methylisoxazol-3-yl)-[1,2,4]triazolo[4,3-b]pyridazin-6-yl)oxy)methyl)-7,8-dihydro-1,6-naphthyridine-6(5H)-carboxamide]	48.3
COc1cc2nnc(-c3cc(C)on3)n2nc1OCc1ccc2c(n1)CCN(C(=O)N(C)CC(F)(F)F)C2 [Embodiment 204]	49.7
COc1cc2nnc(-c3cc(C)on3)n2nc1OCc1ccc2c(n1)CCN(S(=O)(=O)N(C)C)C2 [Embodiment 205, 2-(((7-Methoxy-3-(5-methylisoxazol-3-yl)-[1,2,4]triazolo[4,3-b]pyridazin-6-yl)oxy)methyl)-N,N-dimethyl-7,8-dihydro-1,6-naphthyridine-6(5H)-sulfonamide]	52.5
COc1cc2nnc(-c3cc(C)on3)n2nc1OCc1ccc2c(n1)CCN(C(=O)NCC(F)F)C2 [Embodiment 207]	49.3
COc1cc2nnc(-c3cc(C)on3)n2nc1OCc1ccc2c(n1)CCN(S(C)(=O)=O)C2 [Embodiment 209]	48.8
COc1cc2nnc(-c3cc(C)on3)n2nc1OCc1ccc2nc(C3CCOCC3)cn2n1 [Embodiment 212]	72.6
COc1cc2nnc(-c3cc(C)on3)n2nc1OCc1ccc2nnc(C3CCOCC3)n2n1 [Embodiment 215]	36.8
COc1cc2nnc(-c3cc(C)on3)n2nc1OCc1ccc2cnn(C)c2n1 [Embodiment 220]	51.8
COc1cc2nnc(-c3cc(C)on3)n2nc1OCc1ccc2c(cnn2Cc2ccccc2)n1 [Embodiment 222]	44.3
COc1cc2nnc(-c3cc(C)on3)n2nc1OCc1ccc2c(cnn2Cc2cc(C)on2)n1 [Embodiment 224]	46.7
